Source: patent US11142531B2, “Cyano substituted heteroarylpyrimidinone derivative, preparation method and use thereof” (ZHEJIANG HISUN PHARMACEUTICAL CO., LTD., priority 2017, dated 2021)

How the values were obtained:
[1] = biological target: recombinant human ACC1 (Homo sapiens (Human), UniProt Q13085); test: Inhibition of enzymatic activity of ACC1 (ADP-Glo chemiluminescence); assay type: biochemical; conditions: recombinant human ACC1 protein 2 nM, ATP 20 μM, acetyl-CoA 10 μM, NaHCO3 30 mM
Description: (§1) The degree of inhibition of the enzymatic activity of recombinant human ACC1, ACC2 proteins under in-vitro conditions by the preferred compounds of the present disclosure is determined by the following method.
The principle of the method was based on the reaction of ACC protein-catalyzed acetyl-CoA to form malonyl-CoA. ATP was consumed during this reaction and ADP was produced. The produced ADP was reconverted into ATP by using ADP-Glo™ Kinase Kit from Promega. This part of ATP reacted with the luciferase-fluorescence in the kit, and generated chemiluminescent signals. Thus, by measuring the intensity of chemiluminescent signal, the amount of ADP produced in the catalytic reaction was reflected, thereby indirectly determining the enzymatic activity of ACC protein and the effect of the tested compound on the enzymatic activity. The main reagents used included ACC1, ACC2 proteins (purchased from BPS bioscience, ACC1 Art. No. 50200, ACC2 Art. No. 50201), acetyl-CoA (acetyl-CoA, purchased from Sigma, Art. No. A2056), NaHCO3 (purchased from Sigma, Art. No. S6014), ADP-Glo™ Kinase assay kit (purchased from Promega, Art. No. V9102).
The test procedure was briefly described as follows: firstly, a 1× buffer solution required for the reaction was prepared, comprising: 50 mM HEPES (pH7.4 purchased from Invitrogen, Art. No. 15630), 2 mM magnesium chloride (MgCl2, purchased from Sigma, Art. No. M1028), 2 mM potassium citrate (Potassium citrate, purchased from Sigma, Art. No. 89306), 0.01% Brij-35 detergent (purchased from Merck, Art. No. 203728), 2 mM DTT (purchased from Sigma, Art. No. D0632). The test compound powder was dissolved in DMSO to prepare a stock solution having a concentration of 10 mM, followed by three-fold dilution to prepare the concentration required for the test, and each compound was set at 10 concentration points ranging from 10 μm to 0.5 nM. Firstly, appropriate amount of ACC protein (2 nM) was added to a 384-well microplate, and then diluted test compound solutions were added to each well. A duplicate well was provided at each concentration, and a solution control group (blank group) and a negative control group (DMSO group) were set at the same time. The 384-well plates were then shaken on a microwell plate oscillator and incubated for 15 minutes at room temperature. Thereafter, a substrate mixture containing ATP, acetyl-CoA and NaHCO3 which was diluted with the aforementioned buffer solution was added to each well to start the reaction, and the final concentrations of the three components were respectively ATP 20 μM, acetyl-CoA 10 μM, and NaHCO3 30 mM. After reacting for 30 minutes at room temperature, the corresponding reaction solution and detection solution were added to each well according to the method in the specification of ADP-Glo™ Kinase assay kit (referring to the specification of the kit for specific methods). Finally, the relative light unit (RLU) values of each well were tested using an Envision 2104 multi-function microplate reader (Perkin Elmer). The percentage inhibition rate of a compound at a concentration on ACC enzyme activity was calculated by the following formula: Inhibition rate %=[(RLU average value of negative control wells−RLU average value of blank control wells)−(RLU average values of test wells−RLU average values of blank control wells)]/(RLU average values of negative control wells−RLU average values of blank control wells)*100
Finally, nonlinear regression analysis of the logarithm of the concentration of the compound and the percentage inhibition rate of the corresponding concentration was carried out in the GraphPad Prism5 software to obtain the half maximal inhibitory concentration (IC50) of the compound.

[2] = biological target: recombinant human ACC2 (Homo sapiens (Human), UniProt O00763); test: Inhibition of enzymatic activity of ACC2 (ADP-Glo chemiluminescence); assay type: biochemical; conditions: recombinant human ACC2 protein 2 nM, ATP 20 μM, acetyl-CoA 10 μM, NaHCO3 30 mM
Description: as §1
The principle of the method was based on the reaction of ACC protein-catalyzed acetyl-CoA to form malonyl-CoA. ATP was consumed during this reaction and ADP was produced. The produced ADP was reconverted into ATP by using ADP-Glo™ Kinase Kit from Promega. This part of ATP reacted with the luciferase-fluorescence in the kit, and generated chemiluminescent signals. […]
The test procedure was briefly described as follows: firstly, a 1× buffer solution required for the reaction was prepared, comprising: 50 mM HEPES (pH7.4 purchased from Invitrogen, Art. No. 15630), 2 mM magnesium chloride (MgCl2, purchased from Sigma, Art. No. M1028), 2 mM potassium citrate (Potassium citrate, purchased from Sigma, Art. No. 89306), 0.01% Brij-35 detergent (purchased from Merck, Art. No. 203728), 2 mM DTT (purchased from Sigma, Art. No. D0632). […] Finally, the relative light unit (RLU) values of each well were tested using an Envision 2104 multi-function microplate reader (Perkin Elmer). […]

[3] = Oral pharmacokinetic research in SD rats (plasma and liver, LC/MS/MS); assay type: in vivo; conditions: male, Sprague-Dawley (SD), rat, intragastric, 10 mg/kg
Description: SD rat was used as the experimental animal. The drug concentrations in plasma and liver at different times were tested after the rats were intragastrically administered with the compound of Example 19 by LC/MS/MS methods, so as to research the pharmacokinetic characteristics of compound of present disclosure in rats.
An appropriate amount of experimental drug was weighed, and 0.5% sodium carboxymethylcellulose (CMC-Na) was added, and the mixture was milled to prepare a 1 mg/mL suspension;
6 healthy adult male rats were divided into 2 groups, fasted overnight and respectively intragastrically administered with the drug at a dosage of 10 mg/kg, at a volume of 10 mL/kg. The rats were feed 2 h after the administration.
Blood was collected by jugular vein puncture, and about 0.25 mL was collected for each sample, which was anticoagulated by using heparin sodium, and the samples were placed on ice after collection. The time points of blood collection were as follows:
The first group of animals: blood collection time: before administration, and 0.083 h, 0.25 h, 0.5 h, 1 h, 2 h, 4 h, 6 h, 8 h and 24 h after administration.
The second group of animals: the animals were euthanized 0.5 h after administration, and the liver tissues were collected, 3 rats/time point.
Blood samples were collected and placed on ice, and plasma was separated by centrifugation (centrifugation conditions: 8000 rpm, 6 min, 2-8° C.). The collected plasma was stored at −80° C. before analysis.
The content of the test compound in the plasma and liver of the rats after intragastrically administration was analyzed by LC-MS/MS.

Chain of recombinant human ACC2 (O00763 whole entry): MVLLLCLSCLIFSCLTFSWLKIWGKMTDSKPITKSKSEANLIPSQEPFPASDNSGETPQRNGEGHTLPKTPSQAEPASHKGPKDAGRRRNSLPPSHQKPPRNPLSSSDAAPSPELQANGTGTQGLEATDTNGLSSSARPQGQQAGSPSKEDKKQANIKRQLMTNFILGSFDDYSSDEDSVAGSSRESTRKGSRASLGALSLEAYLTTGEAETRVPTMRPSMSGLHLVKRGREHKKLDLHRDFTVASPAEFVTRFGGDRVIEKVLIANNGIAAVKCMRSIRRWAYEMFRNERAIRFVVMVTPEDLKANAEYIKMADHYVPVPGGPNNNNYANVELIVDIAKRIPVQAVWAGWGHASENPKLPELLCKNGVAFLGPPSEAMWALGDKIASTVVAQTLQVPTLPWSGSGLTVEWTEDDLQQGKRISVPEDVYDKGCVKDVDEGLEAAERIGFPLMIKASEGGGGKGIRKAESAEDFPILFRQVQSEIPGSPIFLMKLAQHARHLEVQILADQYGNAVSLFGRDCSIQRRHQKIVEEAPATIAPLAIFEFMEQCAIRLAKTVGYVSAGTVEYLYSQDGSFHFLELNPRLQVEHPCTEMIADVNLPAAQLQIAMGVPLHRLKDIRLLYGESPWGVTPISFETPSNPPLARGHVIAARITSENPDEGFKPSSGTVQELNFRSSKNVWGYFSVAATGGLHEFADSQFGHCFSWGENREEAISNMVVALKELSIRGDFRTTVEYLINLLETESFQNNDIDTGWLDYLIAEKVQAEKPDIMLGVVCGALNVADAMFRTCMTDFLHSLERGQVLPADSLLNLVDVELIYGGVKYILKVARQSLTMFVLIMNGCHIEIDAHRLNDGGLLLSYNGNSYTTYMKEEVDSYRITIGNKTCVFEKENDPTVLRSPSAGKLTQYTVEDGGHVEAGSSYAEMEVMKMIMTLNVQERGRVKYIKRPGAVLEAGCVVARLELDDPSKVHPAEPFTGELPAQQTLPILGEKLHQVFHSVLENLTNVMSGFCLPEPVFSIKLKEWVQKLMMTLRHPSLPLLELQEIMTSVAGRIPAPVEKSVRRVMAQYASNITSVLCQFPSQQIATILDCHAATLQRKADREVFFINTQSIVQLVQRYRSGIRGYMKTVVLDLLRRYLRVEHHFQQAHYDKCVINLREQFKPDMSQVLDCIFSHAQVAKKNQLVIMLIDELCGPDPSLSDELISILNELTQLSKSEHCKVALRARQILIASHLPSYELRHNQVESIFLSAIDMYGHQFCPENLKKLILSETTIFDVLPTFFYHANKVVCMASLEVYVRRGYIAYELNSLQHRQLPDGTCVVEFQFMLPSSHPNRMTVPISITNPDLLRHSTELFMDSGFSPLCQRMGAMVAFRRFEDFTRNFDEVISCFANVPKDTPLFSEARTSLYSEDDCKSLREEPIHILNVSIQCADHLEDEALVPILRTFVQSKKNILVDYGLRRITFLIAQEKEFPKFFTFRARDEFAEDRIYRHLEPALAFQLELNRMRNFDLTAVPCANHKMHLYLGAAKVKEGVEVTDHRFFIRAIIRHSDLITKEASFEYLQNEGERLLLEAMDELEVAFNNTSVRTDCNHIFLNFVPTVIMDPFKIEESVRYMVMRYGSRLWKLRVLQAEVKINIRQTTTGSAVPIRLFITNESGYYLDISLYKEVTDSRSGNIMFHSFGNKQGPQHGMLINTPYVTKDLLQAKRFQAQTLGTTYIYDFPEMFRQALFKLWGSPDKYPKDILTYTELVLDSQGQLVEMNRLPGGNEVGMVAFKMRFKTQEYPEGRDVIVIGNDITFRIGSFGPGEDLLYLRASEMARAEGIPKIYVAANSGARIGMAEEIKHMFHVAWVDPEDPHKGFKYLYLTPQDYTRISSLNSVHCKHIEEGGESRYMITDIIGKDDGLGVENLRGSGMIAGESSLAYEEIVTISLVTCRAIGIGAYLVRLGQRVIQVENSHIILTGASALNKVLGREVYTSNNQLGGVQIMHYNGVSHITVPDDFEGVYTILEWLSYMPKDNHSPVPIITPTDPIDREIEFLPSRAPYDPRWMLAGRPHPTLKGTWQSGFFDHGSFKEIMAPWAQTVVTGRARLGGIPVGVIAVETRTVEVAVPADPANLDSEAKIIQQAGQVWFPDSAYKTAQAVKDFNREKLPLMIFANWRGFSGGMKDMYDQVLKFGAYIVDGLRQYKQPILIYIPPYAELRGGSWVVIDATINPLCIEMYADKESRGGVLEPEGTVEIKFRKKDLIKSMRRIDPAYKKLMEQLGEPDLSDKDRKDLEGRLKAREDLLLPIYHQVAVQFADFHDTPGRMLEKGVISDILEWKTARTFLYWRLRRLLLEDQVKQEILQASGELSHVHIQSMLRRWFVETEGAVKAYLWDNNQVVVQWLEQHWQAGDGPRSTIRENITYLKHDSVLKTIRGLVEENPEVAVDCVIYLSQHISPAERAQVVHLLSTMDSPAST

Row | IC50 [1] [nM] | SMILES | other results
1 | 36 | Cc1c(C#N)sc2c1c(=O)n(C(C)(C)C(=O)O)c(=O)n2CC(OC1CCOCC1)c1ccccc1OCC1CC1 (stereo not shown) [Example 13, 2-(6-Cyano-1-(2-(2-(cyclopropylmethoxy)phenyl)-2-((tetrahydro-2H-pyran-4-yl)oxy)ethyl)-5-methyl-2,4-dioxo-1,2-dihydrothiopheno[2,3-d]pyrimidin-3(4H)-yl)-2-methylpropionic acid] | 
2 | 6.4 | Cc1c(C#N)sc2c1c(=O)n(C(C)(C)C(=O)O)c(=O)n2C[C@H](OC1CCOCC1)c1cc(F)ccc1OCCF [Example 21, (R)-2-(6-cyano-1-(2-(5-fluoro-2-(2-fluoroethoxy)phenyl)-2-((tetrahydro-2H-pyran-4-yl)oxy)ethyl)-5-methyl-2,4-dioxo-1,2-dihydrothiopheno[2,3-d]pyrimidin-3(4H)-yl)-2-methylpropionic acid] | IC50 [2]: 22 nM
3 | 38 | COc1ccccc1C(Cn1c(=O)n(C(C)(C)C(=O)O)c(=O)c2c(C)c(C#N)sc21)OC1CCOCC1 (stereo not shown) [Example 1, 2-(6-Cyano-1-(2-(2-methoxyphenyl)-2-((tetrahydro-2H-pyran-4-yl)oxy)ethyl)-5-methyl-2,4-dioxo-1,2-dihydrothiopheno[2,3-d]pyrimidin-3(4H)-yl)-2-methylpropionic acid] | 
4 | 11.6 | COc1ccccc1[C@H](Cn1c(=O)n(C(C)(C)C(=O)O)c(=O)c2c(C)c(C#N)sc21)OC1CCOCC1 [Example 3, (R)-2-(6-cyano-1-(2-(2-methoxyphenyl)-2-((tetrahydro-2H-pyran-4-yl)oxy)ethyl)-5-methyl-2,4-dioxo-1,2-dihydrothiopheno[2,3-d]pyrimidin-3(4H)-yl)-2-methylpropionic acid] | 
5 | 7.9 | Cc1c(C#N)sc2c1c(=O)n(C(C)(C)C(=O)O)c(=O)n2CC(OC1CCOCC1)c1cc(F)ccc1OCCF (stereo not shown) [Example 14, 2-(6-Cyano-1-(2-(5-fluoro-2-(2-fluoroethoxy)phenyl)-2-((tetrahydro-2H-pyran-4-yl)oxy)ethyl)-5-methyl-2,4-dioxo-1,2-dihydrothiopheno[2,3-d]pyrimidin-3(4H)-yl)-2-methylpropionic acid] | 
6 | 16.5 | COc1ccc(F)cc1C(Cn1c(=O)n(C(C)(C)C(=O)O)c(=O)c2c(C)c(C#N)sc21)OC1CCOCC1 (stereo not shown) [Example 4, 2-(6-Cyano-1-(2-(5-fluoro-2-methoxyphenyl)-2-((tetrahydro-2H-pyran-4-yl)oxy)ethyl)-5-methyl-2,4-dioxo-1,2-dihydrothiopheno[2,3-d]pyrimidin-3(4H)-yl)-2-methylpropionic acid] | 
7 | 16 | COc1ccccc1[C@@H](Cn1c(=O)n(C(C)(C)C(=O)O)c(=O)c2c(C)c(C#N)sc21)OC1CCOCC1 [Example 2, (S)-2-(6-Cyano-1-(2-(2-methoxyphenyl)-2-((tetrahydro-2H-pyran-4-yl)oxy)ethyl)-5-methyl-2,4-dioxo-1,2-dihydrothiopheno[2,3-d]pyrimidin-3(4H)-yl)-2-methylpropionic acid] | 
8 | 21 | CCOc1ccccc1C(Cn1c(=O)n(C(C)(C)C(=O)O)c(=O)c2c(C)c(C#N)sc21)OC1CCOCC1 (stereo not shown) [Example 6, 2-(6-Cyano-1-(2-(2-ethoxyphenyl)-2-((tetrahydro-2H-pyran-4-yl)oxy)ethyl)-5-methyl-2,4-dioxo-1,2-dihydrothiopheno[2,3-d]pyrimidin-3(4H)-yl)-2-methylpropionic acid] | 
9 | 20.7 | Cc1c(C#N)sc2c1c(=O)n(C(C)(C)C(=O)O)c(=O)n2CC(OC1CCOCC1)c1cc(F)ccc1OCC#N (stereo not shown) [Example 17, 2-(6-Cyano-1-(2-(2-(cyanomethoxy)-5-fluorophenyl)-2-((tetrahydro-2H-pyran-4-yl)oxy)ethyl)-5-methyl-2,4-dioxo-1,2-dihydrothiopheno[2,3-d]pyrimidin-3(4H)-yl)-2-methylpropionic acid] | 
10 | 4.4 | CCOc1ccc(F)cc1C(Cn1c(=O)n(C(C)(C)C(=O)O)c(=O)c2c(C)c(C#N)sc21)OC1CCOCC1 (stereo not shown) [Example 15, 2-(6-Cyano-1-(2-(2-ethoxy-5-fluorophenyl)-2-((tetrahydro-2H-pyran-4-yl)oxy)ethyl)-5-methyl-2,4-dioxo-1,2-dihydrothiopheno[2,3-d]pyrimidin-3(4H)-yl)-2-methylpropionic acid] | 
11 | 15 | COc1ccc(F)cc1[C@H](Cn1c(=O)n(C(C)(C)C(=O)O)c(=O)c2c(C)c(C#N)sc21)OC1CCOCC1 [Example 11, (R)-2-(6-Cyano-1-(2-(5-fluoro-2-methoxyphenyl)-2-((tetrahydro-2H-pyran-4-yl)oxy)ethyl)-5-methyl-2,4-dioxo-1,2-dihydrothiopheno[2,3-d]pyrimidin-3(4H)-yl)-2-methylpropionic acid] | 
12 | 2.7 | CCOc1ccc(F)cc1[C@H](Cn1c(=O)n(C(C)(C)C(=O)O)c(=O)c2c(C)c(C#N)sc21)OC1CCOCC1 [Example 19, (R)-2-(6-cyano-1-(2-(2-ethoxy-5-fluorophenyl)-2-((tetrahydro-2H-pyran-4-yl)oxy)ethyl)-5-methyl-2,4-dioxo-1,2-dihydrothiopheno[2,3-d]pyrimidin-3(4H)-yl)-2-methylpropionic acid] | IC50 [2]: 6 nM; concentration at 0.5 h ([3]; oral, liver, 0.5 h after administration, read-out: drug concentration in the liver): 46800 ± 14000 ng/mL; Cmax ([3]; po, plasma, read-out: Blood concentration Cmax): 920 ± 362 ng/mL; AUC(0-inf) ([3]; po, plasma, read-out: Curve area AUC0-∞): 1940 ± 1190 ng·h/mL; half-life ([3]; po, plasma, read-out: Half-life period T½ (converted)): 3.39 ± 0.65 h; MRT ([3]; po, plasma, read-out: Residence time MRT): 2.82 ± 0.34 h
